Measured values reported in PubChem BioAssay (NCI).
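Cells were grown in 96-well plates and exposed to each compound for 48 hours at five concentrations; endpoints were interpolated linearly between bracketing concentrations, or set to the highest concentration if not reached. GI50: concentration for 50% inhibition of growth. TGI: total growth inhibition.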

Tests used:
Test in all cases: NCI tumour cell line growth inhibition, 48 h
786-0 renal = system: 786-0 renal
A498 renal = system: A498 renal
A549 NSCLC = system: A549 NSCLC
ACHN renal = system: ACHN renal
BT-549 breast = system: BT-549 breast
CAKI-1 renal = system: CAKI-1 renal
CCRF-CEM leukemia = system: CCRF-CEM leukemia
COLO 205 colon = system: COLO 205 colon
DU-145 prostate = system: DU-145 prostate
EKVX NSCLC = system: EKVX NSCLC
HCC-2998 colon = system: HCC-2998 colon
HCT-116 colon = system: HCT-116 colon
HCT-15 colon = system: HCT-15 colon
HL-60(TB) leukemia = system: HL-60(TB) leukemia
HOP-62 NSCLC = system: HOP-62 NSCLC
HOP-92 NSCLC = system: HOP-92 NSCLC
HS 578T breast = system: HS 578T breast
HT29 colon = system: HT29 colon
IGROV1 ovarian = system: IGROV1 ovarian
K-562 leukemia = system: K-562 leukemia
KM12 colon = system: KM12 colon
LOX IMVI melanoma = system: LOX IMVI melanoma
M14 melanoma = system: M14 melanoma
MALME-3M melanoma = system: MALME-3M melanoma
MCF7 breast = system: MCF7 breast
MDA-MB-231 breast = system: MDA-MB-231 breast
MDA-MB-435 = system: MDA-MB-435
MOLT-4 leukemia = system: MOLT-4 leukemia
NCI-H226 lung = system: NCI-H226 lung
NCI-H23 lung = system: NCI-H23 lung
NCI-H460 lung = system: NCI-H460 lung
NCI-H522 lung = system: NCI-H522 lung
NCI/ADR-RES ovarian = system: NCI/ADR-RES ovarian
OVCAR-3 ovarian = system: OVCAR-3 ovarian
OVCAR-4 ovarian = system: OVCAR-4 ovarian
OVCAR-5 ovarian = system: OVCAR-5 ovarian
OVCAR-8 ovarian = system: OVCAR-8 ovarian
PC-3 prostate = system: PC-3 prostate
RPMI-8226 leukemia = system: RPMI-8226 leukemia
RXF 393 renal = system: RXF 393 renal
SF-268 CNS = system: SF-268 CNS
SF-295 CNS = system: SF-295 CNS
SF-539 CNS = system: SF-539 CNS
SK-MEL-2 melanoma = system: SK-MEL-2 melanoma
SK-MEL-28 melanoma = system: SK-MEL-28 melanoma
SK-MEL-5 melanoma = system: SK-MEL-5 melanoma
SK-OV-3 ovarian = system: SK-OV-3 ovarian
SN12C renal = system: SN12C renal
SNB-19 CNS = system: SNB-19 CNS
SR leukemia = system: SR leukemia
SW-620 colon = system: SW-620 colon
T-47D breast = system: T-47D breast
TK-10 renal = system: TK-10 renal
U251 CNS = system: U251 CNS
UACC-257 melanoma = system: UACC-257 melanoma
UACC-62 melanoma = system: UACC-62 melanoma
UO-31 renal = system: UO-31 renal

For `COc1ccc(C(=O)/C=C/c2ccc(Cl)cc2)cc1S(=O)(=O)Nc1c(N)nc(SC)[nH]c1=O`, the GI50 (786-0 renal) was 1.95 µM, the TGI (786-0 renal) was 4.13 µM and the GI50 (A498 renal) was 10.6 µM. For the same compound, the TGI (A498 renal) was 22.4 µM, the GI50 (A549 NSCLC) was 2.75 µM and the TGI (A549 NSCLC) was 7.62 µM. For the same compound, the GI50 (ACHN renal) was 3.23 µM, the TGI (ACHN renal) was 12.1 µM and the GI50 (BT-549 breast) was 1.63 µM. It also gave a TGI (BT-549 breast) of 3.17 µM, a GI50 (CAKI-1 renal) of 3.83 µM and a TGI (CAKI-1 renal) of 18.6 µM. The GI50 (CCRF-CEM leukemia) was 2.66 µM, the TGI (CCRF-CEM leukemia) was 8.97 µM and the GI50 (COLO 205 colon) was 1.76 µM. It also gave a TGI (COLO 205 colon) of 3.42 µM, a GI50 (DU-145 prostate) of 3.58 µM and a TGI (DU-145 prostate) of 11.5 µM. For the same compound, the GI50 (EKVX NSCLC) was 3.94 µM, the TGI (EKVX NSCLC) was 18.3 µM and the GI50 (HCC-2998 colon) was 1.92 µM. For the same compound, the TGI (HCC-2998 colon) was 3.53 µM, the GI50 (HCT-116 colon) was 1.56 µM and the TGI (HCT-116 colon) was 2.94 µM. For the same compound, the GI50 (HCT-15 colon) was 3.24 µM, the TGI (HCT-15 colon) was 14.9 µM and the GI50 (HL-60(TB) leukemia) was 3.2 µM. The TGI (HL-60(TB) leukemia) was 16.1 µM, the GI50 (HOP-62 NSCLC) was 1.81 µM and the TGI (HOP-62 NSCLC) was 3.97 µM. For the same compound, the GI50 (HOP-92 NSCLC) was 2.59 µM, the TGI (HOP-92 NSCLC) was 7.99 µM and the GI50 (HS 578T breast) was 3.56 µM. The TGI (HS 578T breast) was 24.2 µM, the GI50 (HT29 colon) was 2.93 µM and the TGI (HT29 colon) was 7.93 µM. The GI50 (IGROV1 ovarian) was 3.25 µM, the TGI (IGROV1 ovarian) was 11.9 µM and the GI50 (K-562 leukemia) was 2.77 µM. The TGI (K-562 leukemia) was over 100 µM, the GI50 (KM12 colon) was 2.09 µM and the TGI (KM12 colon) was 4.51 µM. It also gave a GI50 (LOX IMVI melanoma) of 1.63 µM, a TGI (LOX IMVI melanoma) of 3.22 µM and a GI50 (M14 melanoma) of 2 µM. It also gave a TGI (M14 melanoma) of 4.89 µM, a GI50 (MALME-3M melanoma) of 3.02 µM and a TGI (MALME-3M melanoma) of 9.93 µM. The GI50 (MCF7 breast) was 1.97 µM, the TGI (MCF7 breast) was 8.25 µM and the GI50 (MDA-MB-231 breast) was 3.42 µM. It also gave a TGI (MDA-MB-231 breast) of 10.5 µM, a GI50 (MDA-MB-435) of 2.95 µM and a TGI (MDA-MB-435) of 10.7 µM. For the same compound, the GI50 (MOLT-4 leukemia) was 3.71 µM, the TGI (MOLT-4 leukemia) was 18.7 µM and the GI50 (NCI-H226 lung) was 2.34 µM. For the same compound, the TGI (NCI-H226 lung) was 8.36 µM, the GI50 (NCI-H23 lung) was 2.53 µM and the TGI (NCI-H23 lung) was 6.36 µM. For the same compound, the GI50 (NCI-H460 lung) was 2.49 µM, the TGI (NCI-H460 lung) was 6.29 µM and the GI50 (NCI-H522 lung) was 1.88 µM. It also gave a TGI (NCI-H522 lung) of 4.08 µM, a GI50 (NCI/ADR-RES ovarian) of 40.1 µM and a TGI (NCI/ADR-RES ovarian) of over 100 µM. For the same compound, the GI50 (OVCAR-3 ovarian) was 1.94 µM, the TGI (OVCAR-3 ovarian) was 3.94 µM and the GI50 (OVCAR-4 ovarian) was 4.49 µM. It also gave a TGI (OVCAR-4 ovarian) of 14.9 µM, a GI50 (OVCAR-5 ovarian) of 2.83 µM and a TGI (OVCAR-5 ovarian) of 9.53 µM. It also gave a GI50 (OVCAR-8 ovarian) of 3.07 µM, a TGI (OVCAR-8 ovarian) of 9.56 µM and a GI50 (PC-3 prostate) of 2.53 µM. The TGI (PC-3 prostate) was 6.85 µM, the GI50 (RPMI-8226 leukemia) was 2.17 µM and the TGI (RPMI-8226 leukemia) was 5.97 µM. It also gave a GI50 (RXF 393 renal) of 1.6 µM, a TGI (RXF 393 renal) of 3.26 µM and a GI50 (SF-268 CNS) of 2.69 µM. The TGI (SF-268 CNS) was 7.32 µM, the GI50 (SF-295 CNS) was 2.72 µM and the TGI (SF-295 CNS) was 8.91 µM. It also gave a GI50 (SF-539 CNS) of 2.1 µM, a TGI (SF-539 CNS) of 5 µM and a GI50 (SK-MEL-2 melanoma) of 12.8 µM. It also gave a TGI (SK-MEL-2 melanoma) of 27.9 µM, a GI50 (SK-MEL-28 melanoma) of 2.1 µM and a TGI (SK-MEL-28 melanoma) of 4.97 µM. The GI50 (SK-MEL-5 melanoma) was 2.72 µM, the TGI (SK-MEL-5 melanoma) was 9.59 µM and the GI50 (SK-OV-3 ovarian) was 3.65 µM. The TGI (SK-OV-3 ovarian) was 13.4 µM, the GI50 (SN12C renal) was 3.45 µM and the TGI (SN12C renal) was 13.8 µM. The GI50 (SNB-19 CNS) was 2.52 µM, the TGI (SNB-19 CNS) was 8.34 µM and the GI50 (SR leukemia) was 3.57 µM. For the same compound, the TGI (SR leukemia) was over 100 µM, the GI50 (SW-620 colon) was 2.24 µM and the TGI (SW-620 colon) was 5.5 µM. For the same compound, the GI50 (T-47D breast) was 2.45 µM, the TGI (T-47D breast) was 9.83 µM and the GI50 (TK-10 renal) was 2.98 µM. The TGI (TK-10 renal) was 9.44 µM, the GI50 (U251 CNS) was 1.58 µM and the TGI (U251 CNS) was 3.12 µM. For the same compound, the GI50 (UACC-257 melanoma) was 8.27 µM, the TGI (UACC-257 melanoma) was 21.4 µM and the GI50 (UACC-62 melanoma) was 2.33 µM. The TGI (UACC-62 melanoma) was 6.65 µM, the GI50 (UO-31 renal) was 1.89 µM and the TGI (UO-31 renal) was 4.53 µM.
